Results as given in patent US11559598B2, “Alcohol free, low viscosity, and high water content air freshener compositions” (Belle-Aire Fragrances, LLC, priority 2020, dated 2023).
In brackets after ≈: the same amount, converted by molar mass.

Key:
[1] = at 25° C.; cited from earlier work
[2] = Viscosity by Brookfield Rotational Viscometer; format: physicochemical; details: 20% BAC1342 in distilled water
Procedure: Two of the compositions used traditional used surfactants (polysorbate 20 and octylphenol oxylate), and the third used a glycol ether (diethylene glycol mono butyl ether). The appearances of the compositions were recorded and their viscosities were measured using a Brookfield Rotational Viscometer with Spindle #1 and Rotational Speed at 12 RPM: […]

[3] = Appearance of air freshener compositions with 20% BAC1342; format: physicochemical; details: 20% BAC1342 in distilled water, without any other surfactants
Procedure: Two of the compositions used traditional used surfactants (polysorbate 20 and octylphenol oxylate), and the third used a glycol ether (diethylene glycol mono butyl ether). The appearances of the compositions were recorded and their viscosities were measured using a Brookfield Rotational Viscometer with Spindle #1 and Rotational Speed at 12 RPM:
Both of the prior art surfactants fail to form transparent microemulsion with 20% BAC1342 in distilled water.

Row | formation of transparent microemulsion [3] | SMILES | water solubility [1] [µg/mL] | viscosity (in words) [2]
1 | – | CC(CC=O)c1ccc(C(C)(C)C)cc1 (stereo not shown) [3-(4-tert-butylphenyl)butanal] | 38 (≈ 186 µM) | –
2 | – | C=C1CC/C=C(\C)CC[C@@H]2[C@@H]1CC2(C)C [Beta-caryophyllene] | 0.05 (≈ 0.245 µM) | –
3 | forms clear microemulsion | CCCCOCCOCCO [diethylene glycol n-butyl ether] | – | low enough to be applied in various formats such as room sprays and plug-ins
